Laboratory results: ChEMBL document CHEMBL5726782, “N-pyrrolidinyl,N′-pyrazolyl-urea, thiourea, guanidine and cyanoguanidine compounds as TrkA kinase inhibitors” (2018)

Target: High affinity nerve growth factor receptor (Homo sapiens, UniProt P04629)
Test: Kinase Binding Assay: TrkA binding activity was determined in a TrkA LanthaScreen™ Eu Kinase Binding Assay. 5 nM His-tagged recombinant human TrkA (6HIS tagged cytoplasmic domain from Invitrogen, Catalog No. PV3144) was incubated with 4 nM Alexa-Fluor® Tracer 236 (Invitrogen Cat. No. PV5592), 2 nM biotinylated anti-His (Invitrogen Cat. No. PV6090), and 2 nM europium-labeled Streptavidin (Invitrogen Cat. No. PV5899), in buffer (25 mM MOPS, pH 7.5, 5 mM MgCl2, 0.005% Triton X-100). Three fold serial dilutions of compounds of the invention in DMSO were added to a final percentage of 2% DMSO. After 60-minute incubation at 22° C., the reaction was measured using the EnVision mutlimode plate reader (PerkinElmer) via TR-FRET dual wavelength detection at […]. The percent of control was calculated using a ratiometric emission factor.

Chain of High affinity nerve growth factor receptor (P04629 whole entry, the tested form may be a part): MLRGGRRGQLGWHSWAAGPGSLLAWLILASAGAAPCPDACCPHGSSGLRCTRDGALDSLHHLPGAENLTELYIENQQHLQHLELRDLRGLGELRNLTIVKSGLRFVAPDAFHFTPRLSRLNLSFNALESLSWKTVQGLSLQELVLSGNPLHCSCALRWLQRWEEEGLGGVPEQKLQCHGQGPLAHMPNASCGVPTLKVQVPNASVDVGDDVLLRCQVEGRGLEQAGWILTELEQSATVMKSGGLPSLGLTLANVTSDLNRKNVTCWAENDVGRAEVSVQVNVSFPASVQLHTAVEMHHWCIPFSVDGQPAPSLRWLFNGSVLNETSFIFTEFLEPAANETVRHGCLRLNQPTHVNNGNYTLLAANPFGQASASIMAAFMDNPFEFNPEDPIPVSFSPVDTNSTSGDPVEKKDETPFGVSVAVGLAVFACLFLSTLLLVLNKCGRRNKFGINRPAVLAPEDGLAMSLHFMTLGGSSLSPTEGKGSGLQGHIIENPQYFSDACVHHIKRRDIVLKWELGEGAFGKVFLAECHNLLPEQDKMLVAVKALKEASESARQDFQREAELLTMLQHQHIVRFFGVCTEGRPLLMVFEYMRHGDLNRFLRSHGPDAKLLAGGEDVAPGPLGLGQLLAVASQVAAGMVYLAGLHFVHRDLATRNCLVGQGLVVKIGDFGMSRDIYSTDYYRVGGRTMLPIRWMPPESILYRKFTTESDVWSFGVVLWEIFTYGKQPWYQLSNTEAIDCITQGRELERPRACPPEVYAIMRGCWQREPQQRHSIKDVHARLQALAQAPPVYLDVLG

Q: `COCCN1C[C@@H](NC(=O)Nc2c(C)c(-c3cncc(OC)c3)nn2-c2ccccc2)[C@H](c2ccc(F)c(F)c2)C1` was tested. Which IC50 did it give?
A: < 100 nM
